Key:
MODE-K cells = assay: MODE-K cell presentation of α-galcer to DN32 cells (IL-2 ELISA); format: cell-based, mouse; conditions: MODE-K cells incubated with inhibitor (10 uM)
Method: FIG. 17A is a bar chart showing IL-2 production of MODE-K cells cultured in the presence of BMS212122 (MTPi) or vehicle were incubated with α-galcer for 3 hours, washed, and co cultured with DN32 cells. IL-2 concentrations were measured by ELISA of 24 hour culture supernatants.
APCs were incubated with 100 ng/mL α-galcer (kindly provided by Dr. H. Ploegh) for 3 hours, washed three times in PBS and aliquoted into a 96 well plate at 10^6 cells/mL. DN32 cells were added at 1:1 E:T ratio unless otherwise indicated. CD4^+ cells were isolated from spleens of OT-II transgenic mice using positive selection on CD4 magnetic beads (Miltenyi Biotec) and incubated with APCs and 100 μg/mL ovalbumin. The 24.8 NKT cell line was incubated with APCs in the absence of added antigen at E:T=2:1 unless otherwise indicated. Mouse IL-2 production was assessed by ELISA (OptEIA, BD PharMingen) of 24 or 40 hour culture supernatants. APCs were treated with BMS212122 (10 uM dissolved in DMSO; kindly provided by Bristol Myers Squibb, New Jersey) as indicated and washed prior to addition of T or NKT cells. […]
The relationship between MTP and CD1d in large intestinal epithelial cells (IECs) was determined. […]

moDCs = assay: Flow cytometry of surface CD1d and MHC class I on human monocyte-derived DCs; format: cell-based; conditions: moDCs after 5 days in presence of inhibitor
Excerpt: FIG. 20F is a series of flow cytometric analysis showing surface staining of human monocyte-derived DCs were stained with 42.1 (CD1d), anti-HLA-A,B,C (MHC class I), or isotype control antibodies (dashed lines) after 4 days of differentiation in the presence of BMS212122 (gray lines) or vehicle control (black lines).
Bone marrow was extracted from the femurs of C57BL6 or MTPmx1cre mice, washed once in PBS and resuspended in R10 supplemented with culture supernatant from murine GM-CSF transfected cells for a final concentration of 200 U/mL GM-CSF. BMDCs were then cultured in bacteriological plates for 12-14 days as described. Differentiated cells were harvested by gentle pipetting, washed in PBS, and analyzed by flow cytometry for surface expression of CD11c and I-A^b. […] After 5 days cells were dislodged by gentle pipetting, analyzed by flow cytometry and assayed for antigen presentation.
Mouse cells were stained using the following antibodies: FITC-conjugated α-CD1d (1B1, PharMingen); PE-conjugated α-CD11c (HL3, PharMingen); FITC-conjugated α-1-A^d (AMS-32.1, PharMingen); PE-conjugated α-CD69 (H1.2F3, PharMingen); PE-conjugated α-B220 (RA3-6B2, PharMingen). […] Staining was performed in the presence of Via-Probe (PharMingen) and analyzed with a FACSort flow cytometer (Becton Dickinson). […]

For `Cc1ccc2c(nc(C)n2CCCCC2(C(=O)NCC(F)(F)F)c3ccccc3-c3ccccc32)c1NC(=O)c1ccccc1-c1ccc(C(F)(F)F)cc1` [BMS212122, 9-[4-[2,5-Dimethyl-4-[[[4′-(trifluoromethyl)[1,1′-biphenyl]-2-yl]carbonyl]amino]-1H-benzimidazol-1-yl]butyl]-N-(2,2,2-trifluoroethyl)-9H-fluorene-9-carboxamide], the “presentation of α-galcer to DN32 cells” value (MODE-K cells) was “decreased”, the “surface CD1d mean fluorescence intensity” value (moDCs; vehicle 4.2, p<0.05) was 3.3 and the “MHC class I mean fluorescence intensity” value (moDCs; vehicle 70) was 76.
